{
  "source": "patent US8663646B2",
  "about": "“P53 peptide vaccine” (priority 2007, dated 2014)",
  "key": {"[1]": {"molecular_target": "T1, HLA-A*0201 (Homo sapiens, UniProt P04439, D140Y/D185E/D98H/E176V/E277Q/G131W/G231S/I119V/I121R/I166T/I218V/L300P/L318F/N151K/N90K/P208A/P217A/Q86G/Q94H/R138H/R169H/T345S)", "assay": "Peptide stabilization for HLA-A*0201", "type": "binding", "conditions": "HLA-A*0201; p53 peptides"}, "[2]": {"system": "proteasome", "assay": "Proteasome processing, summarised over proteasome types (Table 5)", "type": "biochemical", "conditions": "30 residue long precursor peptides", "method": "In the context of the invention, “being inefficiently processed by a proteasome” preferably means that within the first hour of digestion by a proteasome less than 1% of total digested peptide is found. The processing by a proteasome is preferably assessed by incubating a purified proteasome, more preferably a human proteasome with a peptide comprising the potential CTL epitope (30 amino acid length approximately) in a proteasome digestion buffer during at least one hour at 37° C. The reaction is subsequently stopped by adding trifluoroacetic acid. Analysis of the digested peptides is performed with electrospray ionization mass spectrometry (see example 1). Even more preferably, the human proteasome is an immunoproteasome from B-LCL JY cells (Kessler J H et al. 2001).\n20S immuno-proteasomes were purified from a mouse B-cell line (RMA) and a human B-LCL cell line (JY) and 20S household proteasomes were purified from human tumor cell line (HeLa) as described (Kessler J H et al 2001). To assess kinetics, digestions were performed with different incubation periods as indicated. Briefly, peptides containing the (potential) CTL epitopes (30 mers, 20 μg) were incubated with 1 μg of purified proteasome at 37° C. for 1 h, 4 h and 24 h in 300 μl proteasome digestion buffer, trifluoroacetic acid (30 μl) was added to stop the digestion and samples were stored at −20° C. before mass spectrometric analysis. Electrospray ionization mass spectrometry was performed on a hybrid quadrupole time-of-flight mass spectromter, a Q-TOF (Micromass), equipped with an on-line nanoelectrospray interface with an approximate flow rate of […] as described (Kessler J H et al 2001). The peaks in the mass spectrum were searched in the digested precursor peptide using the Biolynx/proteins software (Micromass) supplied with the mass spectrometer. The intensity of the peaks in the mass spectra was used to establish the relative amounts of peptides generated after proteasome digestion. The relative amounts of the peptides are given as a percentage of the total amount of peptide digested by the proteasome at the indicated incubation time. Major cleavage sites are defined as more than >1% of total digested peptide within the first hour."}, "[3]": {"molecular_target": "T1, HLA-A*0201", "conditions": "binding capacity previously determined; cited from earlier work"}},
  "data": [
    {"smiles": "CSCC[C@H](NC(=O)[C@@H](N)CCCNC(=N)N)C(=O)N1CCC[C@H]1C(=O)N[C@@H](CCC(=O)O)C(=O)N[C@@H](C)C(=O)N[C@@H](C)C(=O)N1CCC[C@H]1C(=O)N1CCC[C@H]1C(=O)N[C@H](C(=O)O)C(C)C", "note": "[p53 65-73]", "values": [
      {"measurement": "Peptide Binding Stability", "setting": "[1]", "result": 6, "unit": "h"},
      {"measurement": "generation / processing by household and immunoproteasomes, in words", "setting": "[2]", "result": "not/inefficiently processed"},
      {"measurement": "Peptide Binding Affinity", "setting": "[3]", "result": "high"}
    ]}
  ]
}
